{"source": "ChEMBL document CHEMBL1201862", "about": "“PubChem BioAssay data set” (2004)", "key": {"[1]": {"test": "M. tuberculosis H37Rv growth inhibitors, H37Rv strain (AID 1626)", "type": "functional"}, "[2]": {"molecular_target": "T1, Bcl-2-like protein 10 (Homo sapiens, UniProt Q9HD36)", "T1 sequence (Q9HD36 whole entry)": "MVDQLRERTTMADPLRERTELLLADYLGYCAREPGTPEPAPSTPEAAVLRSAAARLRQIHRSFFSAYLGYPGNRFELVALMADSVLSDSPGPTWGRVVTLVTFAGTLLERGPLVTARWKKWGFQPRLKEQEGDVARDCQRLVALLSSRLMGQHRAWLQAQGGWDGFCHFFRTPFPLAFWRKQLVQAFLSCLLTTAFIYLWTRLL", "test": "displacers of TR3 peptide from Bcl-B, primary screen, selectivity assay for Bfl-1 inhibitor project, biochemical, fluorescence polarization, FITC-TR3 peptide (AID 748);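 note: fluorescence polarization from a fluorescein-labelled TR3 peptide binding purified Bcl-B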"}, "[3]": {"molecular_target": "T2, Carboxy-terminal domain RNA polymerase II polypeptide A small phosphatase 1 (Homo sapiens, UniProt Q9GZU7)", "T2 sequence (Q9GZU7 whole entry)": "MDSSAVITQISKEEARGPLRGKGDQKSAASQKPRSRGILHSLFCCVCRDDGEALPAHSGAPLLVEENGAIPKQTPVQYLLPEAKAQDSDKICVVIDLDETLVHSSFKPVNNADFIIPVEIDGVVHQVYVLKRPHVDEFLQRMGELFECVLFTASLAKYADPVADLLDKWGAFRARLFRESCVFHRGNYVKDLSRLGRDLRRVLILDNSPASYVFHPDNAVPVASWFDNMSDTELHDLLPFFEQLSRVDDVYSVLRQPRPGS", "test": "inhibitors of CTDSP1, concentration-response testing, biochemical assay, absorbance-based, actives from ultra-high-throughput screening (AID 540297)", "type": "functional"}, "[4]": {"molecular_target": "Galanin receptor type 3 (Homo sapiens, UniProt O60755)", "sequence (O60755 whole entry)": "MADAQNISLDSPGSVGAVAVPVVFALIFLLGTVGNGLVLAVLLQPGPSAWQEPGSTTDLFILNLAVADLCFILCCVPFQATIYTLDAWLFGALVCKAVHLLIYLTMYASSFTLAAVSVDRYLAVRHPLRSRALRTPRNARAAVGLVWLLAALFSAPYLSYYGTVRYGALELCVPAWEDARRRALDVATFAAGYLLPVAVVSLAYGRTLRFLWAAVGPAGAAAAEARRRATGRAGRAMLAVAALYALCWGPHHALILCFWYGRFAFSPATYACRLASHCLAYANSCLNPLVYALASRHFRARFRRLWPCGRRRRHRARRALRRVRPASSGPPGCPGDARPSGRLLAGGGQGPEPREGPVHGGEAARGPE", "test": "Fluorescence-based cell-based primary high throughput dose response assay to identify antagonists of the Galanin Receptor 3 (GalR3).", "type": "functional"}, "[5]": {"molecular_target": "Ion channel NompC (Danio rerio, UniProt Q7T1G6)", "test": "Fluorescence counterscreen assay for TRPML3 agonists: dose response cell-based high-throughput screening assay to identify agonists of the transient receptor potential channel N1 (TRPN1). [Related pubchem assays: 1526, 1424, 1448 ]", "type": "functional"}, "[6]": {"molecular_target": "T3, DNA dC->dU-editing enzyme APOBEC-3A (Homo sapiens, UniProt P31941)", "T3 sequence (P31941 whole entry)": "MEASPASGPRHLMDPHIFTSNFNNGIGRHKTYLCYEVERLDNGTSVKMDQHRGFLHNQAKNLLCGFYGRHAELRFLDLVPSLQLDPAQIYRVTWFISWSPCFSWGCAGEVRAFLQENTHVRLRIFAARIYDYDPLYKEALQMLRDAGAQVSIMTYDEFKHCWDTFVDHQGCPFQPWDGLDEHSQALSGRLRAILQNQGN", "test": "Dose Response confirmation of small molecule APOBEC3A DNA Deaminase Inhibitors via a fluorescence-based single-stranded DNA deaminase assay. [Related pubchem assays (depositor defined):AID493011, AID493024]", "type": "functional"}, "[7]": {"molecular_target": "T4, Mucolipin-3 (Homo sapiens, UniProt Q8TDD5)", "T4 sequence (Q8TDD5 whole entry)": "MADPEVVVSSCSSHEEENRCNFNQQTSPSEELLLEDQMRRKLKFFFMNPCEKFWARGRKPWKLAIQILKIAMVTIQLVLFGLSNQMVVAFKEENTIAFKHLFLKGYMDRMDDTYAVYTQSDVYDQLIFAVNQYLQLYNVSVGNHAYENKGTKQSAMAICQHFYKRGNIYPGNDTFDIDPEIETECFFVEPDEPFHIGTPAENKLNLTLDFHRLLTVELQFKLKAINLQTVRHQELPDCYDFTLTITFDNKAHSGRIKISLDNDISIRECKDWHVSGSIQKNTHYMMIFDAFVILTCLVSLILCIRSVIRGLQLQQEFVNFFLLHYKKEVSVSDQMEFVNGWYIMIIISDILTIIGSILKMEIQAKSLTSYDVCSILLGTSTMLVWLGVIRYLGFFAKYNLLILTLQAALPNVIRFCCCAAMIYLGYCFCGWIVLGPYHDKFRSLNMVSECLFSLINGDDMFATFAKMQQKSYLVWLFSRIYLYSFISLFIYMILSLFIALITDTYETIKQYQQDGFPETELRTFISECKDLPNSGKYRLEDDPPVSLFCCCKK", "test": "Dose response cell-based high-throughput screening assay for agonists of the transient receptor potential channel ML3 (TRPML3). [Related pubchem assays: 1526, 1424, 1448 ]", "type": "functional"}, "[8]": {"molecular_target": "T5, DNA dC->dU-editing enzyme APOBEC-3G (Homo sapiens, UniProt Q9HC16)", "T5 sequence (Q9HC16 whole entry)": "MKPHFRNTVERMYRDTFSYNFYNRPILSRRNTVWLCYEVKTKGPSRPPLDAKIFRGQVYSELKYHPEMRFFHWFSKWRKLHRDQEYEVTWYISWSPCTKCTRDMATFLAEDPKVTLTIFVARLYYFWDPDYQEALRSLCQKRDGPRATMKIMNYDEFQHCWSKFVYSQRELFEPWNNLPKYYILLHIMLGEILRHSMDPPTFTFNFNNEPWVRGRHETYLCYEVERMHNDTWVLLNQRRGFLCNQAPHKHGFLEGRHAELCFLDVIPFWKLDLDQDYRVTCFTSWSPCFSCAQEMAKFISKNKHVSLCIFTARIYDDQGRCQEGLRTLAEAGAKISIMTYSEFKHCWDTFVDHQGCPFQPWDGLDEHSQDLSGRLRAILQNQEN", "type": "functional"}, "[9]": {"test": "cells", "type": "functional, cell-based", "settings": "HEK-CNG"}, "[10]": {"molecular_target": "G-protein coupled receptor 35 (Homo sapiens, UniProt Q9HC97)", "sequence (Q9HC97 whole entry)": "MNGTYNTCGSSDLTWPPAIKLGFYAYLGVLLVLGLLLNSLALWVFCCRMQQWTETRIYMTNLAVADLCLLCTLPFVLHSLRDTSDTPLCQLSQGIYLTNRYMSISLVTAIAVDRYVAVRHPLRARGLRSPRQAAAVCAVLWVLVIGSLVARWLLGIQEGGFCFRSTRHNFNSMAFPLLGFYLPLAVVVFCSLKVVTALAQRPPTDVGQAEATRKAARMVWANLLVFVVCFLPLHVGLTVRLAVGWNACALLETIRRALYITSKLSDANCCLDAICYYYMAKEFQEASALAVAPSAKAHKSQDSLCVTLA", "test": "GPR35 antagonists blocking zaprinast-driven arrestin recruitment, primary screen, imaging, U2OS, beta-arrestin-GFP, zaprinast agonist (AID 2058);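 note: antagonist potency meaning inhibition of agonist-induced arrestin redistribution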", "type": "functional"}, "[11]": {"test_system": "HEK293", "test": "inhibitors of LMP1-driven NF-kB reporter, dose response, cell-based, HEK293, luciferase, cherry-pick (AID 588343)", "type": "functional", "settings": "Homo sapiens"}, "[12]": {"molecular_target": "T6, RNA-binding protein pos-1 (Caenorhabditis elegans, UniProt G5EF15)", "T6 sequence (G5EF15 whole entry)": "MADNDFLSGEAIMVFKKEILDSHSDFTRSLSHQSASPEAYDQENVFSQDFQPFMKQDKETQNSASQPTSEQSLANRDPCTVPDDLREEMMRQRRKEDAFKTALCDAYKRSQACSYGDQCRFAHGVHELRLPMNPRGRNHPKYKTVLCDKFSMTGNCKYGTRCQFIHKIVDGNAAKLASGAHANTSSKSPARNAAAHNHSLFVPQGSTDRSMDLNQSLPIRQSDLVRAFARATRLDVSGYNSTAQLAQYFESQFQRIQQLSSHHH", "test": "inhibitors of POS-1/mex-3 RNA binding, dose response, biochemical, fluorescence polarization (AID 1964);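 note: purified POS-1 fused to maltose binding protein made in E. coli; potency of compounds blocking POS-1 binding to fluorescent RNA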"}, "[13]": {"molecular_target": "T7, Zinc finger protein mex-5 (Caenorhabditis elegans, UniProt Q9XUB2)", "T7 sequence (Q9XUB2 whole entry)": "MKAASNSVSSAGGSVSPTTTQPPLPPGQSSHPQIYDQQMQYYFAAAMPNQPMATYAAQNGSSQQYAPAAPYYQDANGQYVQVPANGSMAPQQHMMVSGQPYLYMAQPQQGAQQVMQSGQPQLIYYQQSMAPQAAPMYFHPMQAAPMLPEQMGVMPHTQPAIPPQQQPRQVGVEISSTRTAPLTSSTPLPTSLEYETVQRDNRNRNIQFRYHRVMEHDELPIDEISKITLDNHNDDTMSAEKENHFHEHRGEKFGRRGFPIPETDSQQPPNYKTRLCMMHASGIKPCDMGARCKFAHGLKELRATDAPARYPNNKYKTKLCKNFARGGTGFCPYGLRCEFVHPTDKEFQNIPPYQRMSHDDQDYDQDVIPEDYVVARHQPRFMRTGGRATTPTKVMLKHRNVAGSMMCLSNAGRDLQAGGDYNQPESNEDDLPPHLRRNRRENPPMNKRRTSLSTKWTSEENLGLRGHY", "test": "MEX-5/TCR-2 RNA interaction inhibitors, dose response, biochemical, C. elegans, fluorescence polarization (AID 1960)"}, "[14]": {"molecular_target": "T8, Probable nicotinate-nucleotide adenylyltransferase (Staphylococcus aureus (strain N315), UniProt P65502)", "T8 sequence (P65502 whole entry)": "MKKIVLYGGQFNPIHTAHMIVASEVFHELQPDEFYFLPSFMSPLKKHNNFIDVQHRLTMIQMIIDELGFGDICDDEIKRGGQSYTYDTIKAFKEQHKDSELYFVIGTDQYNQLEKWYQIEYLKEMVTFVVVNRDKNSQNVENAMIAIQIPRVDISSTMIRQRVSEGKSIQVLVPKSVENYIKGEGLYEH", "type": "functional, Staphylococcus aureus subsp. aureus N315"}, "[15]": {"test": "HIV-1 Env-mediated cell fusion inhibitors, dose response, CCR5-tropic Env (AID 2279)", "type": "functional"}, "[16]": {"molecular_target": "T8, Probable nicotinate-nucleotide adenylyltransferase", "type": "functional, Staphylococcus aureus subsp. aureus N315", "settings": "read-out: IC50_Mean"}, "[17]": {"molecular_target": "T9, Fatty acid synthase (Homo sapiens, UniProt P49327)", "T9 sequence (P49327 whole entry, the tested form may be a part)": "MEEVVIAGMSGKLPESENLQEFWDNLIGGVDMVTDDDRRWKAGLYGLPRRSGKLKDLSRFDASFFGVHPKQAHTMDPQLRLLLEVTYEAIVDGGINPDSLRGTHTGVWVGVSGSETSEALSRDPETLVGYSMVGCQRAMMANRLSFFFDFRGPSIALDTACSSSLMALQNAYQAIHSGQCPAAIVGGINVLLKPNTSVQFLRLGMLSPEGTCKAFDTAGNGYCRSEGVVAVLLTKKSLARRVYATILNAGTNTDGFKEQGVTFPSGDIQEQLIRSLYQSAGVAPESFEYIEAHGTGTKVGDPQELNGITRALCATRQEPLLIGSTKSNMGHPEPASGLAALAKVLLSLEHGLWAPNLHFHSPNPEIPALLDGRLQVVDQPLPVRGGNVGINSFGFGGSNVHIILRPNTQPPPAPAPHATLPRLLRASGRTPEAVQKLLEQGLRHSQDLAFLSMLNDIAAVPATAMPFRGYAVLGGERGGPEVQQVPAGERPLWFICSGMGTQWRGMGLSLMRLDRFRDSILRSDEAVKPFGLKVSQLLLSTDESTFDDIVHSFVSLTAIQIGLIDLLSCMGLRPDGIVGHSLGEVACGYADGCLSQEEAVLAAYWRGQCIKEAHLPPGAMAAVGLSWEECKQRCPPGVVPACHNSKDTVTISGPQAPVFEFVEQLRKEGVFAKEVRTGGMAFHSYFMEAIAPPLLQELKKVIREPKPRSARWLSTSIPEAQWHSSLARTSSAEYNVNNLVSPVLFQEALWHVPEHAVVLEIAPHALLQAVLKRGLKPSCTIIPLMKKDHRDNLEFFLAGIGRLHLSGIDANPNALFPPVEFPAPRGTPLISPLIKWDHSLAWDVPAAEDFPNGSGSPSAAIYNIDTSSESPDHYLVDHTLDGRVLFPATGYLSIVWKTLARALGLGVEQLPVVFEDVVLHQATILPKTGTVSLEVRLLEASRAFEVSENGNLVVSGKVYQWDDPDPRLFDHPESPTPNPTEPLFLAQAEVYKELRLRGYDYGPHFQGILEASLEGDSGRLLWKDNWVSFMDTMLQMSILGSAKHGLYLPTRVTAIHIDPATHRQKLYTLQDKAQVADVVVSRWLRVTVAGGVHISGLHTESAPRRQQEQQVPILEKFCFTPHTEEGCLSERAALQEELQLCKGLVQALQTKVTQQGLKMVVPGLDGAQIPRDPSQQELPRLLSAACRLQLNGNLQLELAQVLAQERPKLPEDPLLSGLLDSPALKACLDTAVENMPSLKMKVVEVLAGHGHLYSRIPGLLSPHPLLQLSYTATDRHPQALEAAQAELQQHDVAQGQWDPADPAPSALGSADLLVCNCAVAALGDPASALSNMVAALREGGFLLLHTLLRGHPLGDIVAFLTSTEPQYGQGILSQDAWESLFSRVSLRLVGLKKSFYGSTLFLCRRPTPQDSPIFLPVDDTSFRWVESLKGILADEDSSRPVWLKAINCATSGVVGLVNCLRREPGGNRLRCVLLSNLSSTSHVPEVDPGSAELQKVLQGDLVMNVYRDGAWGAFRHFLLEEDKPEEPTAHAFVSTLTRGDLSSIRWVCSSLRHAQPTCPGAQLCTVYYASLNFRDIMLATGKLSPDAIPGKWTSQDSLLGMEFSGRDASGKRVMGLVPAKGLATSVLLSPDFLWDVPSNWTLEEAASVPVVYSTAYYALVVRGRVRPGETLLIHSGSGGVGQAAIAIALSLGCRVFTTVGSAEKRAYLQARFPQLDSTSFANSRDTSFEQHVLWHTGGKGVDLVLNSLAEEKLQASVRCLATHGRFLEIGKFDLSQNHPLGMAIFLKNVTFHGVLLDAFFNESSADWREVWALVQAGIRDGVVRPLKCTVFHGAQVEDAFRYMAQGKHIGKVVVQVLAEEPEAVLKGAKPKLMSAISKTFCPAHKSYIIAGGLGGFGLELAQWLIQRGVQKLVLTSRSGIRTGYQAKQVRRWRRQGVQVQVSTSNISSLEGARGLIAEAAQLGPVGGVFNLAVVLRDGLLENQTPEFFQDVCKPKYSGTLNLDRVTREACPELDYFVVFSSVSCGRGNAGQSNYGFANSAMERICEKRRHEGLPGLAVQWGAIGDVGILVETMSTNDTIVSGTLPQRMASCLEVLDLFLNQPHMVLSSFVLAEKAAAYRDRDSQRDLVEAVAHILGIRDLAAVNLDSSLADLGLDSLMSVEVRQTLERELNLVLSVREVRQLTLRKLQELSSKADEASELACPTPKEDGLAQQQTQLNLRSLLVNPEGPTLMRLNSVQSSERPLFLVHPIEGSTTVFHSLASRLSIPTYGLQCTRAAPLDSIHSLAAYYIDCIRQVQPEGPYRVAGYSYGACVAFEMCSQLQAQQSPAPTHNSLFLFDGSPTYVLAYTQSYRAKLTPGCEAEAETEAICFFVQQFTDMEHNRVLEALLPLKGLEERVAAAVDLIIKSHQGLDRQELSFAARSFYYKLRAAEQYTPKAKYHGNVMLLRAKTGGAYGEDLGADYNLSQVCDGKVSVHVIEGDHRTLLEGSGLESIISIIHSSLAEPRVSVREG", "test": "FAS thioesterase domain inhibitors, dose response, biochemical, endpoint fluorescence intensity, uHTS hits (AID 624327);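 note: fluorescence from hydrolysis of an O-methyl fluorescein acyl ester substrate by the enzyme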", "type": "functional"}, "[18]": {"molecular_target": "T9, Fatty acid synthase", "test": "FAS thioesterase domain inhibitors, dose response, biochemical, kinetic fluorescence intensity (AID 624326);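 note: rate of fluorescence rise from hydrolysis of a fluorogenic O-methyl fluorescein ester substrate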", "type": "functional"}, "[19]": {"molecular_target": "T5, DNA dC->dU-editing enzyme APOBEC-3G", "test": "Dose Response confirmation of small molecule APOBEC3G DNA Deaminase Inhibitors via a fluorescence-based single-stranded DNA deaminase assay. [Related pubchem assays (depositor defined):AID493012, AID493028]", "type": "functional"}, "[20]": {"molecular_target": "T3, DNA dC->dU-editing enzyme APOBEC-3A", "test": "APOBEC3A DNA deaminase inhibitors, dose response, biochemical (AID 504722)", "type": "functional"}}, "note": "Calls of active or inactive are those of the source.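 Throughout, for IC50 Mean: confirmatory dose-response retesting of NadD inhibitor hits first found in an ultra-high-throughput screen.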", "data": [{"smiles": "COc1ccc(N)cc1-n1cnnn1", "values": [{"measurement": "IC50", "setting": "[1]", "result": "> 100 µM (active)"}]}, {"smiles": "O=C(COC(=O)c1cncc(Br)c1)NCc1ccco1", "values": [{"measurement": "IC50", "setting": "[2]", "result": "46.9 µM (active)"}, {"measurement": "IC50", "setting": "[3]", "result": "4.6 µM (active)"}]}, {"smiles": "C[N+](C)(C)C/C=C1/COCO1", "values": [{"measurement": "IC50", "setting": "[4]", "result": "> 29.9 µM (inactive)"}, {"measurement": "EC50", "setting": "[5]", "result": "17.6 µM (not active)"}, {"measurement": "IC50", "setting": "[6]", "result": "1.89 µM (active)"}, {"measurement": "EC50", "setting": "[7]", "result": "4.76 µM (active)"}, {"measurement": "IC50", "setting": "[8]", "result": "1.89 µM (active)"}, {"measurement": "EC50", "setting": "[9]", "result": "> 29.9 µM (inactive)"}]}, {"smiles": "CC1(C)Cc2c(ccc3ccccc23)/C(=C/C(=O)N2CCCCC2)N1", "values": [{"measurement": "IC50", "setting": "[10]", "result": "11 µM (inactive)"}, {"measurement": "AC50", "setting": "[11]", "result": "26.1 µM (active)"}]}, {"smiles": "COc1cccc(C2C3CN(C)CC=C3C(C#N)=C(N)C2(C#N)C#N)c1OC", "note": "(stereo unspecified)", "values": [{"measurement": "IC50", "setting": "[10]", "result": "2.74 µM (active)"}, {"measurement": "EC50", "setting": "[12]", "result": "2.18 µM (inconclusive)"}, {"measurement": "EC50", "setting": "[13]", "result": "8.49 µM (active)"}]}, {"smiles": "COc1ccc(-c2csc(NC(=O)c3ccccc3NS(=O)(=O)c3ccc(C)cc3)n2)cc1", "values": [{"measurement": "IC50", "setting": "[14]", "result": "6.12 µM (active)"}, {"measurement": "IC50", "setting": "[15]", "result": "3.03 µM (active)"}, {"measurement": "IC50", "setting": "[16]", "result": "60.1 µM (active)"}, {"measurement": "IC50", "setting": "[17]", "result": "10.2 µM (active)"}, {"measurement": "IC50", "setting": "[18]", "result": "6.07 µM (active)"}]}, {"smiles": "COCCCn1c(S)nnc1-c1ccc(Cl)cc1", "values": [{"measurement": "IC50", "setting": "[19]", "result": "4.57 µM (active)"}, {"measurement": "IC50", "setting": "[20]", "result": "> 100 µM (inactive)"}]}]}
